≈ marks a conversion by molar mass, not a printed value. Where two headings read alike, the source gives them in different places. Where a SMILES comes first, the peptide text is derived from it.
What was measured:
MDREC 1229 = format: cell-based, Escherichia coli
Method in brief: (§1)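 Antibiotic MIC came from antibiotic dilutions added to bacteria (2×10^6 CFU/ml, MH medium) already combined with peptide serially diluted 2:1 from its own MIC. Swapping the roles of the two agents gave the peptide MIC.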

E. coli [1] = format: cell-based, Escherichia coli; details: E. coli
Method in brief: as §1

A. baumannii = test: MIC of antibiotic during combined treatment with antimicrobial peptide; format: cell-based, Acinetobacter baumannii; details: for Antibiotic MIC, Erythromycin / Antibiotic MIC, Linezolid / Antibiotic MIC, Vancomycin: A. baumannii
Method in brief: (§2)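 MIC values for mixed peptide plus antibiotic solutions were measured in MH medium.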

MDRST 8009 = format: cell-based, Salmonella typhimurium; details: agent alone
Method in brief: (§3)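 Each strain is brought to 2×10^6 CFU in nutrient-sufficient Mueller-Hinton medium and dispensed into wells. Peptide solutions, stepwise diluted 2:1 in the same medium, are then added. The minimal concentration preventing growth gives the MIC.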

S. epidermidis = test: microbe, parasite or virus in culture; format: cell-based, Staphylococcus epidermidis
Method in brief: as §3

E. coli [2] = test: MIC of antibiotic during combined treatment with antimicrobial peptide; format: cell-based, Escherichia coli; details: for Antibiotic MIC, Erythromycin / Antibiotic MIC, Linezolid / Antibiotic MIC, Vancomycin: E. coli
Method in brief: as §2

P. aeruginosa = test: microbe, parasite or virus in culture; format: cell-based, Pseudomonas aeruginosa
Method in brief: as §3

[3] = combined with peptide at 1 μg/ml
[4] = combined with peptide at 2 μg/ml
[5] = combined with peptide at 4 μg/ml
[6] = combined with peptide at 6 μg/ml
[7] = combined with peptide at 8 μg/ml
[8] = combined with peptide at 16 μg/ml
[9] = combined with peptide at 32 μg/ml
[10] = combined with peptide at 64 μg/ml

SMILES: CC[C@H](C)[C@H](NC(=O)[C@H](CCCCN)NC(=O)[C@H](Cc1c[nH]c2ccccc12)NC(=O)[C@@H](N)CCCNC(=N)N)C(=O)N[C@@H](Cc1ccccc1)C(=O)N[C@@H](CCCCN)C(=O)N[C@@H](CCCCN)C(=O)N[C@H](C(=O)N1CCC[C@H]1C(=O)N[C@@H](CCCCN)C(=O)N[C@@H](Cc1ccccc1)C(=O)N[C@@H](CC(C)C)C(=O)N[C@@H](Cc1c[nH]cn1)C(=O)N[C@@H](CCC(=O)O)C(=O)N[C@@H](C)C(=O)N[C@@H](CCCCN)C(=O)N[C@@H](CCCCN)C(=O)N[C@@H](Cc1ccccc1)C(N)=O)[C@@H](C)CC [PapMA-11, RWK IFK KIP KFL HEA KKF-NH2] (H-RWKIFKKIPKFLHEAKKF-NH2; N-terminus assumed)
- Peptide MIC during treatment with antibiotic (MDREC 1229; vancomycin 512 μg/ml (Conc./MIC 1/2)): 2 µg/mL
- Peptide MIC during treatment with antibiotic (MDREC 1229; vancomycin 1024 μg/ml (Conc./MIC 1)): 1 µg/mL
- Peptide MIC during treatment with antibiotic (MDREC 1229; vancomycin […] (Conc./MIC 1/4)): 4 µg/mL
- Peptide MIC during treatment with antibiotic (MDREC 1229; vancomycin […] (Conc./MIC 1/8)): 8 µg/mL
- Peptide MIC (E. coli [1]; with Erythromycin […] (Conc./MIC 1)): 0 µg/mL
- Peptide MIC (E. coli [1]; with Linezolid […] (Conc./MIC 1)): 0 µg/mL
- Peptide MIC (E. coli [1]; with Vancomycin 1024 μg/ml (Conc./MIC 1)): 0 µg/mL
- Synergistic effect of antibacterial activity with existing antibiotics compared with PapMA-1 (A. baumannii; A. baumannii and MDRAB 12035): level similar to that of PapMA-1 peptide
- Antibiotic MIC, Erythromycin (A. baumannii; [3]): 32 µg/mL
- Antibiotic MIC, Linezolid (A. baumannii; [3]): 128 µg/mL
- Antibiotic MIC, Vancomycin (A. baumannii; [3]): >128 µg/mL
- Antibiotic MIC, Erythromycin (A. baumannii; [4]): 16 µg/mL
- Antibiotic MIC, Linezolid (A. baumannii; [4]): 128 µg/mL
- Antibiotic MIC, Vancomycin (A. baumannii; [4]): 128 µg/mL
- Antibiotic MIC, Erythromycin (A. baumannii; [5]): 4 µg/mL
- Antibiotic MIC, Linezolid (A. baumannii; [5]): 64 µg/mL
- Antibiotic MIC, Vancomycin (A. baumannii; [5]): 32 µg/mL
- Antibiotic MIC, Erythromycin (A. baumannii; [6]): 1 µg/mL
- Antibiotic MIC, Linezolid (A. baumannii; [6]): 32 µg/mL
- Antibiotic MIC, Vancomycin (A. baumannii; [6]): 16 µg/mL
- Antibiotic MIC, Erythromycin (A. baumannii; [7]): 0.5 µg/mL
- Antibiotic MIC, Linezolid (A. baumannii; [7]): 16 µg/mL
- Antibiotic MIC, Vancomycin (A. baumannii; [7]): 8 µg/mL
- Antibiotic MIC, Erythromycin (A. baumannii; [8]): 0.25 µg/mL
- Antibiotic MIC, Linezolid (A. baumannii; [8]): 8 µg/mL
- Antibiotic MIC, Vancomycin (A. baumannii; [8]): 4 µg/mL
- Antibiotic MIC, Erythromycin (A. baumannii; [9]): 0.125 µg/mL
- Antibiotic MIC, Linezolid (A. baumannii; [9]): 2 µg/mL
- Antibiotic MIC, Vancomycin (A. baumannii; [9]): 1 µg/mL
- Antibiotic MIC, Erythromycin (A. baumannii; [10]): 0 µg/mL
- Antibiotic MIC, Linezolid (A. baumannii; [10]): 0 µg/mL
- Antibiotic MIC, Vancomycin (A. baumannii; [10]): 0 µg/mL
- Minimal inhibitory concentration MIC (MDRST 8009): 64 µg/mL (≈ 27.3 µM)
- Minimal inhibitory concentration MIC (S. epidermidis): >128 µg/mL
- Synergistic effect of antibacterial activity with existing antibiotics compared with PapMA-1 (E. coli [2]; E. coli and MDREC1229): level similar to that of the PapMA-1 peptide
- Antibiotic MIC, Erythromycin (E. coli [2]; erythromycin combined with peptide at 1 μg/ml): 64 µg/mL
- Antibiotic MIC, Erythromycin (E. coli [2]; erythromycin combined with peptide at 2 μg/ml): 64 µg/mL
- Antibiotic MIC, Erythromycin (E. coli [2]; erythromycin combined with peptide at 4 μg/ml): 16 µg/mL
- Antibiotic MIC, Erythromycin (E. coli [2]; erythromycin combined with peptide at 6 μg/ml): 4 µg/mL
- Antibiotic MIC, Erythromycin (E. coli [2]; erythromycin combined with peptide at 8 μg/ml): 1 µg/mL
- Antibiotic MIC, Erythromycin (E. coli [2]; erythromycin combined with peptide at 16 μg/ml): 0.25 µg/mL
- Antibiotic MIC, Erythromycin (E. coli [2]; erythromycin combined with peptide at 32 μg/ml): 0.125 µg/mL
- Antibiotic MIC, Erythromycin (E. coli [2]; erythromycin combined with peptide at 64 μg/ml): 0 µg/mL
- Antibiotic MIC, Linezolid (E. coli [2]; linezolid combined with peptide at 1 μg/ml): >128 µg/mL
- Antibiotic MIC, Linezolid (E. coli [2]; linezolid combined with peptide at 2 μg/ml): 128 µg/mL
- Antibiotic MIC, Linezolid (E. coli [2]; linezolid combined with peptide at 4 μg/ml): 128 µg/mL
- Antibiotic MIC, Linezolid (E. coli [2]; linezolid combined with peptide at 6 μg/ml): 32 µg/mL
- Antibiotic MIC, Linezolid (E. coli [2]; linezolid combined with peptide at 8 μg/ml): 32 µg/mL
- Antibiotic MIC, Linezolid (E. coli [2]; linezolid combined with peptide at 16 μg/ml): 16 µg/mL
- Antibiotic MIC, Linezolid (E. coli [2]; linezolid combined with peptide at 32 μg/ml): 8 µg/mL
- Antibiotic MIC, Linezolid (E. coli [2]; linezolid combined with peptide at 64 μg/ml): 0 µg/mL
- Antibiotic MIC, Vancomycin (E. coli [2]; vancomycin combined with peptide at 1 μg/ml): >128 µg/mL
- Antibiotic MIC, Vancomycin (E. coli [2]; vancomycin combined with peptide at 2 μg/ml): >128 µg/mL
- Antibiotic MIC, Vancomycin (E. coli [2]; vancomycin combined with peptide at 4 μg/ml): >128 µg/mL
- Antibiotic MIC, Vancomycin (E. coli [2]; vancomycin combined with peptide at 6 μg/ml): 32 µg/mL
- Antibiotic MIC, Vancomycin (E. coli [2]; vancomycin combined with peptide at 8 μg/ml): 16 µg/mL
- Antibiotic MIC, Vancomycin (E. coli [2]; vancomycin combined with peptide at 16 μg/ml): 8 µg/mL
- Antibiotic MIC, Vancomycin (E. coli [2]; vancomycin combined with peptide at 32 μg/ml): 4 µg/mL
- Antibiotic MIC, Vancomycin (E. coli [2]; vancomycin combined with peptide at 64 μg/ml): 0 µg/mL
- Minimal inhibitory concentration MIC (P. aeruginosa): 128 µg/mL (≈ 54.6 µM)
